Source: article PMC11477209, “Toxicological Evaluation of Kaempferol and Linearolactone as Treatments for Amoebic Liver Abscess Development in Mesocricetus auratus” (International Journal of Molecular Sciences, 2024)
In brackets after ≈: the same amount, converted by molar mass.

Assays:
[1] = tested on: CHO-K1 cells; assay: MTT cytotoxicity assay; assay type: cell-based, Chinese hamster; conditions: 24 h, MTT
[2] = tested on: BEAS-2B cells; assay: MTT cytotoxicity assay; assay type: cell-based, human; conditions: 24 h
[3] = tested on: E. histolytica trophozoites (amoebic liver abscess); assay: Amoebic liver abscess (ALA) model, antiparasitic protocol; assay type: in vivo, Mesocricetus auratus
Excerpt: M. auratus was used as an animal model because the hamster is naturally susceptible to infection by E. histolytica and can develop amoebic colitis or extraintestinal complications such as an ALA [71]. In this context, the hamster can be used to search for new alternative therapeutic agents against amoebiasis. The hamsters were acquired from Charles River Laboratories Inc. (Wilmington, MA, USA) in 2017 by Centro de Investigación y de Estudios Avanzados del Instituto Politécnico Nacional ([…]-IPN). […] Male hamsters (sexually mature and homozygous) weighing 95 ± 5 g and ≈10 weeks old were selected for the experiments. They were maintained in aseptic conditions at 25 ± 1 °C, 50 ± 3% humidity, a 12 h photoperiod, and ad libitum access to a standard diet (LabDiet; Richmond, IN, USA) and water (Figure 5A). The hamsters were housed in polycarbonate boxes (five per box), with an American Iron and Steel Institute (AISI) lid and wood shavings as bedding, in a controlled room of the Animal Production and Experimentation Unit (UPEAL) from […]-IPN (Figure 5A). Additionally, the health state of the hamsters and their adaptation to the new laboratory conditions were evaluated for 15 days to decrease their stress and anxiety levels. This study was carried out according to the Official Mexican Regulations (NOM-062-ZOO-1999) and NC3Rs ARRIVE [60, 72]. The protocol was approved by the Institutional Animal Care and Use Committee (Reg. No. 0183-16). Finally, the hamsters were not subjected to any previous experimental procedure or any additional treatment before beginning the experimental procedures (see File S1, NC3Rs ARRIVE Guidelines Checklist). Compounds that are prohibited and/or not recommended for use in animals by the American Veterinary Medical Association (Guidelines for the Euthanasia of Animals) were not used.
These experiments were performed with three independent biological replicates. For each replicate, twenty-five hamsters were randomly distributed (simple type) into five experimental groups (five animals per group). The sample size was determined based on the Organization for Economic Cooperation and Development (OECD) recommendations that establish the minimum number of individuals required for the tests so as not to sacrifice animals unnecessarily. Laparotomy was performed in aseptic conditions by using depilation, iodine solution, as well as sterile field cloths. Subsequently, an intra-hepatic puncture was made to deliver 1.5 × 10^6 virulent E. histolytica trophozoites in 100 μL of 1× PBS into the left hepatic lobe for ALA induction (Figure 5A-3). The injection site was immediately covered by applying a gel foam pad to maintain hemostasis. The abdominal layers were sutured discontinuously by single vertical stitches using Vicryl synthetic absorbable suture with a triangular pointed half circle needle. Irregular edges or folds in the surgical wound were eliminated to avoid tissue devitalization or possible infections. The development of a hepatic ALA was monitored for 4 days (Figure 5A-4).
(Figure 5B). The compounds were administered by the i.p. route because the peritoneal cavity presents rapid fluid absorption into the bloodstream, and initial biotransformation by the gastrointestinal tract is avoided. […] The hamsters were evaluated 24 h post-treatment to detect any signs of discomfort/pain or toxicity. The humane endpoint criteria used in this study were >20% body weight loss overnight, cachexia, recumbence, lethargy, respiratory distress, inability to reach food and water, lack of grooming, and ulceration around the surgical site, among others. Additionally, the weight of hamsters was determined at the beginning and end of the experiment with an electronic bascule (CS200, Ohaus; Parsippany, NJ, USA), and the ALA volume was calculated based on imaging (Figure 5B-1). […]

[4] = Paraclinical analysis (serum biochemistry, hematic biometry) in ALA hamsters; assay type: in vivo, Mesocricetus auratus; parameters: BUN: unit not given here
Experimental: Serum was obtained by centrifugation at 3500 rpm and frozen at −70 °C until analysis. Hematic biometry was performed in a hematology autoanalyzer system (BC-2300, Mindray; Shenzhen, China), and biochemical parameters were made on an automatic medical system (Prestige 24i, Tokyo Boeki; Kanagawa, Japan).

[5] = tested on: E. histolytica trophozoites (virulent HM-1 strain); conditions: 48 h
[6] = ALA hamsters
[7] = tested on: E. histolytica trophozoites; conditions: 48 h; ref [12],[13]; read-out: IC50 E. histolytica trophozoites (antiproliferative activity); cited from earlier work
[8] = blood, ALA hamsters, i.p. 4 days
[9] = serum, ALA hamsters, i.p. 4 days
[10] = MTZ 0.16, KP 31.6, LL 15.6 μg/mL

C[C@]12C[C@H](c3ccoc3)OC(=O)[C@H]1CCC13COC(=O)C1=CC=C[C@H]32 (stereo partly drawn) [LL, (4S,7R,9R,10S)-7-(furan-3-yl)-9-methyl-6,16-dioxatetracyclo[8.7.0.01,14.04,9]heptadeca-11,13-diene-5,15-dione]
biological activity symbol on IC50 CHO-K1 [1]: -
IC50 ([1]; Cricetulus griseus, CHO-K1, read-out: IC50 CHO-K1): 300 µg/mL (≈ 881 µM)
biological activity symbol on IC50 BEAS-2B [2]: -
IC50 ([2]; Homo sapiens, BEAS-2B): 200 µg/mL (≈ 588 µM)
Edges ([3]; ALA characteristics): Regular and well defined
Leukocyte infiltrate ([3]; ALA characteristics): +/−
Liquid ([3]; ALA characteristics): −
Morphology ([3]; ALA characteristics): Loculated ovoid
ALA Volume ([3]; MRI, i.p. 4 days): 562.3 ± 23.3 * mm^3
MRI T1 signal of ALA ([3]; T1): Intermediate intensity
MRI T2 signal of ALA ([3]; T2): hypointense
ALA Weight ([3]; i.p. 4 days, KP 5, LL 10, MTZ 10 mg/kg/day): 0.40 ± 0.20 g
AL/GGT ratio ([4]; ALA prognosis ratio): 0.23 ± 0.038
Erythrocytes [4, 8]: 6.7 ± 0.4 x10 6/mm3
Hematocrit [4, 8]: 45.4 ± 2.9%
Hemoglobin [4, 8]: 16 ± 0.8 g/dL
Leukocytes [4, 8]: 7.1 ± 1.8 x100/mm3
MCH [4, 8]: 24 ± 0.3 pg
MCHC [4, 8]: 35 ± 0.9 g/dL
MCV [4, 8]: 68 ± 2.2 fL
MPV [4, 8]: 7.7 ± 0.5 fL
PCT [4, 8]: 0.2 ± 0.0%
PDW [4, 8]: 9.4 ± 0.3 fL
Platelets [4, 8]: 303 ± 31 x106/μL
RDW-CV [4, 8]: 14.7 ± 0.6 fL
RDW-SD [4, 8]: 40 ± 2.3 fL
TB/AL ratio ([4]; drug toxicity ratio): 0.22 ± 0.005
neutrophil/lymphocyte ratio ([4]; hematic ratio): 1.66 ± 1.26
BUN/CR ratio ([4]; kidney damage ratio): 31.6 ± 9.8
urea/CR ratio ([4]; kidney damage ratio): 73.1 ± 26
ALP/TB ratio ([4]; liver injury ratio): 10.85 ± 1.28
ALT/ALP ratio ([4]; liver injury ratio): 0.25 ± 0.05
AST/ALT ratio (De Ritis ratio) ([4]; liver injury ratio): > 1
Band neutrophils ([4]; manual differential analysis): 0%
Basophils ([4]; manual differential analysis): 0%
Eosinophils ([4]; manual differential analysis): 0%
Immature forms ([4]; manual differential analysis): 0%
Lymphocytes ([4]; manual differential analysis): 44 ± 21%
Monocytes ([4]; manual differential analysis): 0%
Segmented neutrophils ([4]; manual differential analysis): 56 ± 21%
ALT (GPT) [4, 9]: 89 ± 16 U/L
AST (GOT) [4, 9]: 163 ± 22 U/L
Albumin [4, 9]: 1.7 ± 0.1 g/dL
Alkaline phosphatase [4, 9]: 355 ± 9.5 U/L
BUN [4, 9]: 16.1 ± 1.5
Cholesterol [4, 9]: 105 ± 24 mg/dL
Creatinine [4, 9]: 0.54 ± 0.2 mg/dL
Direct bilirubin [4, 9]: 0.26 ± 0.04 mg/dL
GGT [4, 9]: 7.5 ± 2.1 U/L
Glucose [4, 9]: 123 ± 20 mg/dL
Indirect bilirubin [4, 9]: 0.12 ± 0.0 mg/dL
Total bilirubin [4, 9]: 0.37 ± 0.04 mg/dL
Total protein [4, 9]: 5.3 ± 0.3 g/dL
Triglycerides [4, 9]: 132 ± 8.7 mg/dL
Urea [4, 9]: 37 ± 6.01 mg/dL
biological activity symbol on IC50 HM-1 [5]: +
IC50 HM-1 ([5]; flow cytometry): < 7.8 µg/mL
apoptotic trophozoites [5, 10]: 4.3%
necrotic trophozoites [5, 10]: 90.1%
decrease of size and granularity of the cell population ([5]; MTZ 0.16, KP 31.6, LL 15.6 μg/mL, vs Vh): 66%
change in body weight compared with the control (disease-free) group [6]: −0.21%
Hamster weight ([6]; i.p. 4 days): 93.4 ± 7.2 g
Survival rate ([6]; i.p. 4 days): 100%
Toxicity signs ([6]; i.p. 4 days): None
IC50 [7]: 22.9 µM
